Test results from BindingDB's records for doi:10.1016/j.bioorg.2012.01.003 (Institute For Advanced Studies In Basic Sciences (Iasbs), 2012).

biological target: Acetylcholinesterase (Electrophorus electricus, UniProt O42275); test: Inhibition Assay; settings: pH 8; 25 °C
Protocol: Inhibitory activity of synthesized alpha-unreidophosphonates were determined at 25 C by the colorimetric method of Ellman et al.

Sequence of Acetylcholinesterase (O42275 whole entry): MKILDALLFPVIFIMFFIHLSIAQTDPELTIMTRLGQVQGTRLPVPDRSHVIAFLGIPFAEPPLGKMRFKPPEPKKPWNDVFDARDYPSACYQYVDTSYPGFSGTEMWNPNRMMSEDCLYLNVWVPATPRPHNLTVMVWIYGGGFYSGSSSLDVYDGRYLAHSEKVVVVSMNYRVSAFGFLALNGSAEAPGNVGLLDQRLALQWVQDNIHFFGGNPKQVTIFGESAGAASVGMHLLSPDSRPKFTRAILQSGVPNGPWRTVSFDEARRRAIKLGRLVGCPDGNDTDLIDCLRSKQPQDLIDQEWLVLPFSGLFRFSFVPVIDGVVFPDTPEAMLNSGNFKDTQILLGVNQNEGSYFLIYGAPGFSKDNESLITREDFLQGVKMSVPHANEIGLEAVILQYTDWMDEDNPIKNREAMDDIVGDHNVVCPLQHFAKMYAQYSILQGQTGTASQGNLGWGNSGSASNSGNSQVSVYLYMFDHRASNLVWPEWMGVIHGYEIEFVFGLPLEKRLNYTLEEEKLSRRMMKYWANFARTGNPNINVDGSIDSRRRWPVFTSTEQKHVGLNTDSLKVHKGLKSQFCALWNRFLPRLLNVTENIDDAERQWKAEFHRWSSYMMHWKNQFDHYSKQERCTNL

Q: For `CCOP(=O)(OCC)C(c1ccccc1)N(C(=O)Nc1ccccc1)c1ccccc1` (stereo not drawn) [Alpha-ureidophosphonate, a], which IC50 is on record?
A: 172 µM

Q: `CCOP(=O)(OCC)C(c1ccc(C(C)C)cc1)N(C(=O)Nc1ccccc1)c1ccccc1` (stereo not drawn) [Alpha-ureidophosphonate, b] was tested. Which IC50 did it give?
A: 230 µM

Q: Which IC50 does the source give for `CCOP(=O)(OCC)C(c1ccc([N+](=O)[O-])cc1)N(C(=O)Nc1ccccc1)c1ccccc1` (stereo not drawn) [Alpha-ureidophosphonate, d] here?
A: 811 µM

Q: How did the IC50 turn out when `CCOP(=O)(OCC)C(c1ccc(C)cc1)N(C(=O)Nc1ccccc1)c1ccccc1` (stereo not drawn) [Alpha-ureidophosphonate, e] was run?
A: 441 µM

Q: For `CCOP(=O)(OCC)C(c1ccc(F)cc1)N(C(=O)Nc1ccccc1)c1ccc(OC)cc1` (stereo not drawn) [Alpha-ureidophosphonate, g], which IC50 is on record?
A: 69.3 µM

Q: How did the IC50 turn out when `CCOP(=O)(OCC)C(c1ccc(C)cc1)N(Cc1ccccc1)C(=O)Nc1ccccc1` (stereo not drawn) [Alpha-ureidophosphonate, i] was run?
A: 2.23 µM

Q: How did the IC50 turn out when `CCOP(=O)(OCC)C(c1ccc(C)cc1)N(C(=O)Nc1ccccc1)C1CCCCC1` (stereo not drawn) [Alpha-ureidophosphonate, k] was run?
A: 148 µM
